Reference: ChEMBL document CHEMBL5584312, “Insight into the Interaction of Humulus lupulus L. Specialized Metabolites and Gastrointestinal Bitter Taste Receptors: In Vitro Study in STC-1 Cells and Molecular Docking” (J Nat Prod, 2024)
≈ marks a conversion by molar mass, not a printed value. Calls of active or inactive are those of the source. The calls are words filed in the database; no cut-off is given here.

Assays:
STC-1 [1] = assay: Anti-obesity activity in mouse STC-1 cells assessed as increase in Tas2r120 mRNA expression level at 5 to 10 ug/ml incubated for 2 hrs by RT-qPCR analysis; format: functional, cell-based; details: dose 5-10 µg/ml
STC-1 [2] = assay: Anti-obesity activity in mouse STC-1 cells assessed as increase in Tas2r138 mRNA expression level at 5 to 10 ug/ml incubated for 2 hrs by RT-qPCR analysis; format: functional, cell-based; details: dose 5-10 µg/ml
[3] = Cytotoxicity against mouse STC-1 cells assessed as reduction in cell viability at 5 to 10 ug/ml after 2 to 24 hrs by MTT assay; format: toxicity, cell-based; details: dose lower 5 µg/ml, time lower 2 hrs, dose upper 10 µg/ml, time upper 24 hrs
STC-1 [4] = assay: Anti-obesity activity in mouse STC-1 cells assessed as increase in […] mRNA expression level at 5 to 10 ug/ml incubated for 2 hrs by RT-qPCR analysis; format: functional, cell-based; details: dose 5-10 µg/ml
STC-1 [5] = assay: Anti-obesity activity in mouse STC-1 cells assessed as increase in Tas2r119 mRNA expression level at 5 to 10 ug/ml incubated for 2 hrs by RT-qPCR analysis; format: functional, cell-based; details: dose 5-10 µg/ml
STC-1 [6] = assay: Anti-obesity activity in mouse STC-1 cells assessed as increase in GLP-1 secretion at 10 ug/ml incubated for 120 mins by ELISA; format: functional, cell-based; details: dose 10.0 µg/ml
STC-1 [7] = assay: Agonist activity at Tas2r in mouse STC-1 cells assessed as increase in intracellular calcium level measured every 10 sec for 5 mins by Fluo-4-AM dye based fluorescence analysis; format: cell-based; details: filed as agonist, dose 5-10 µg/ml
STC-1 [8] = assay: Anti-obesity activity in mouse STC-1 cells assessed as increase in CCK secretion at 10 ug/ml incubated for 120 mins by EIA; format: functional, cell-based; details: dose 10.0 µg/ml
STC-1 [9] = assay: Anti-obesity activity in mouse STC-1 cells assessed as increase in Tas2r105 mRNA expression level at 5 to 10 ug/ml incubated for 2 hrs by RT-qPCR analysis; format: functional, cell-based; details: dose 5-10 µg/ml
[10] = Cytotoxicity against mouse STC-1 cells assessed as reduction in cell viability at 5 to 50 ug/ml after 2 to 24 hrs by MTT assay; format: toxicity, cell-based; details: dose lower 5 µg/ml, time lower 2 hrs, dose upper 50 µg/ml, time upper 24 hrs
STC-1 [11] = assay: Anti-obesity activity in mouse STC-1 cells assessed as increase in GLP-1 secretion at 5 to 10 ug/ml incubated for 120 mins by ELISA; format: functional, cell-based; details: dose 5-10 µg/ml
[12] = Anti-obesity activity in mouse STC-1 cells assessed as increase in GLP-1 secretion by measuring fold change at 5 to 10 ug/ml incubated for 120 mins by ELISA; format: functional; details: dose 5-10 µg/ml, 2 h
[13] = Cytotoxicity against mouse STC-1 cells assessed as reduction in cell viability at 50 ug/ml after 2 to 24 hrs by MTT assay; format: toxicity, cell-based; details: time 2-24 hrs, dose 50 µg/ml
[14] = Anti-obesity activity in mouse STC-1 cells assessed as GLP-1 secretion at 10 ug/ml incubated for 120 mins by ELISA (reference value: 13.29 +/- 1.3 pg/ml); format: functional; details: dose 10 µg/ml, 2 h
[15] = Cytotoxicity against mouse STC-1 cells assessed as cell viability at 10 ug/ml after 24 hrs by MTT assay relative to control; format: toxicity, cell-based; details: at 10 µg/mL, read-out: Activity
[16] = Cytotoxicity against mouse STC-1 cells assessed as reduction in cell viability after 24 hrs by MTT assay; format: toxicity, cell-based
[17] = Anti-obesity activity in mouse STC-1 cells assessed as GLP-1 secretion at 5 ug/ml incubated for 120 mins by ELISA (reference value: 13.29 +/- 1.3 pg/ml); format: functional; details: dose 5 µg/ml, 2 h
[18] = Cytotoxicity against mouse STC-1 cells assessed as reduction in cell viability after 2 hrs by MTT assay; format: toxicity, cell-based
STC-1 [19] = assay: Anti-obesity activity in mouse STC-1 cells assessed as increase in GLP-1 secretion incubated for 120 mins by ELISA; format: functional, cell-based; details: dose 5-10 µg/ml

Structure (SMILES): CC(C)=CCC1=C(O)C(C(=O)C(C)C)=C(O)C(CC=C(C)C)(CC=C(C)C)C1=O
- Activity (STC-1 [1]): Active
- Activity (STC-1 [2]): Active
- Activity [3]: Non-Toxic
- Activity (STC-1 [4]): Active
- Activity (STC-1 [5]): Active
- Activity (STC-1 [6]): Active
- Activity (STC-1 [7]): Dose-Dependent Effect
- Activity (STC-1 [8]): Active
- Activity (STC-1 [9]): Active

Structure (SMILES): CC(C)=CCC1=C(O)[C@@](O)(CC=C(C)C)C(=O)C(C(=O)C(C)C)=C1O
- Activity [10]: Non-Toxic
- Activity (STC-1 [11]): inactive
- Activity (STC-1 [2]): Active
- Activity (STC-1 [4]): Active
- Activity (STC-1 [7]): Dose-Dependent Effect

Structure (SMILES): COc1cc(O)c(CC=C(C)C)c(O)c1C(=O)/C=C/c1ccc(O)cc1 [XANTHOHUMOL]
- fold change (FC) [12]: ~2
- Activity [13]: Toxic
- Activity [14]: 28.39 pg/mL
- Activity (STC-1 [2]): Active
- viability at 24 h, 10 ug/ml [15]: 35%
- IC50 at 24 h [16]: 8 µg/mL (≈ 22.6 µM)
- Activity [17]: 20.39 pg/mL
- Activity (STC-1 [7]): Dose-Dependent Effect
- Activity (STC-1 [8]): Active
- IC50 at 2 h [18]: 35.3 µg/mL (≈ 99.6 µM)
- Activity (STC-1 [19]): Dose-Dependent Effect
